Laboratory results taken from ChEMBL document CHEMBL1157601, “1-Alkyl-4-phenyl-6-alkoxy-1H-quinazolin-2-ones: a novel series of potent calcium-sensing receptor antagonists” (J Med Chem, 2010).
≈ marks a conversion by molar mass, not a printed value. Calls of active or inactive are those of the source. The rule behind the calls is not given here.

What was measured:
[1] = biological target: T1, Extracellular calcium-sensing receptor (Homo sapiens, UniProt P41180); test: Antagonist activity at human CaSR expressed in CCL39 cells assessed as inhibition of extracellular calcium-induced intracellular calcium transient by FLIPR assay; format: functional, cell-based
T1 sequence (P41180 whole entry): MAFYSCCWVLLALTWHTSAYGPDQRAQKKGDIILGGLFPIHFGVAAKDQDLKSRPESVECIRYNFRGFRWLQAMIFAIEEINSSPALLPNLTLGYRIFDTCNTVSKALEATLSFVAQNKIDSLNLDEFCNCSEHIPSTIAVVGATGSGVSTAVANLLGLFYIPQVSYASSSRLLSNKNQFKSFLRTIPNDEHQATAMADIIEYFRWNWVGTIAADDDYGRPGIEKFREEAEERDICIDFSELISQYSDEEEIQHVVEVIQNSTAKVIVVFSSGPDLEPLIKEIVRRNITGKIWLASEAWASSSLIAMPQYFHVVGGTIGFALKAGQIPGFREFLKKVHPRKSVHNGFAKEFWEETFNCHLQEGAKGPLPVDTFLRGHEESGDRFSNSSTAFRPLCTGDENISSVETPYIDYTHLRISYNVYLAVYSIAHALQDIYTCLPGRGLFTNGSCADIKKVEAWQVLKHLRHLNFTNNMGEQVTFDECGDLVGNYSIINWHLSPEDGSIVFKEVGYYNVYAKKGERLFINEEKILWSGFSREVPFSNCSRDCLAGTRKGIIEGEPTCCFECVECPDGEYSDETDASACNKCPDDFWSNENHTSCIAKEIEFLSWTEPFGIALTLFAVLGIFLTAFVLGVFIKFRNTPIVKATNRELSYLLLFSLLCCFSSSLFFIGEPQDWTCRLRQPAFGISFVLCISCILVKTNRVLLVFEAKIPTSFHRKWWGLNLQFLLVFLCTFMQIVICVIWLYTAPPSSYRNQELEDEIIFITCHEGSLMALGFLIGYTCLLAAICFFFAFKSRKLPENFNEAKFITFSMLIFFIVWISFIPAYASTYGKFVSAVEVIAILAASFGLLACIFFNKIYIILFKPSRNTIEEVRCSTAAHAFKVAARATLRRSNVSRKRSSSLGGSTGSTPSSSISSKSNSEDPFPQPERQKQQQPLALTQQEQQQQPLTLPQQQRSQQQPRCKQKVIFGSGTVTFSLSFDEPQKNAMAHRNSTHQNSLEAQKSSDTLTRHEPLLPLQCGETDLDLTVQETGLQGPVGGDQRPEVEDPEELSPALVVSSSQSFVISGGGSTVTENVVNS

Rattus norvegicus [2] = test: Induction of PTH release in iv dosed Wistar rat by radioimmunoassay; format: functional, organism-based
[3] = Aqueous solubility at pH 1.0; format: physicochemical
[4] = Oral bioavailability in rat; format: ADME, organism-based; conditions: in vivo
[5] = Aqueous solubility at pH 6.8; format: physicochemical
Rattus norvegicus [6] = test: Induction of PTH release in Wistar rat assessed as PTH Cmax in blood at 30 mg/kg, po by radioimmunoassay; format: functional
Canis familiaris [7] = test: Induction of PTH release in Beagle dog assessed as PTH Cmax in blood at 0.3 mg/kg, po by radioimmunoassay; format: functional, Canis lupus familiaris
Rattus norvegicus [8] = test: Induction of PTH release in Wistar rat assessed as PTH Cmax in blood at 3 mg/kg, po by radioimmunoassay; format: functional
Canis familiaris [9] = test: Induction of PTH release in Beagle dog at 3 mg/kg, po by radioimmunoassay; format: functional, Canis lupus familiaris

## CC#CCOc1ccc2c(c1)c(-c1ccc(C(C)C)cc1)nc(=O)n2C(C)C
[1]
  IC50: 170 nM
Rattus norvegicus [2]
  Activity: Active

## CCCCOc1ccc2c(c1)c(-c1ccc(C(C)C)cc1)nc(=O)n2C(C)C
[1]
  IC50: 3700 nM
Rattus norvegicus [2]
  Activity: Active

## COc1ccc2c(c1)c(-c1ccc(C(C)(C)C)cc1)nc(=O)n2C(C)C
[1]
  IC50: 2100 nM
Rattus norvegicus [2]
  Activity: Active

## CCOc1ccc2c(c1)c(-c1ccc(C(C)C)cc1)nc(=O)n2C(C)C
[1]
  IC50: 2200 nM
Rattus norvegicus [2]
  Activity: Active

## CCCNc1ccc2c(c1)c(-c1ccc(C(C)C)cc1)nc(=O)n2C(C)C
[1]
  IC50: 1100 nM
Rattus norvegicus [2]
  Activity: Active

## C=CCNc1ccc2c(c1)c(-c1ccc(C(C)C)cc1)nc(=O)n2C(C)C
[1]
  IC50: 70 nM
Rattus norvegicus [2]
  Activity: Active

## C#CCOc1ccc2c(c1)c(-c1ccc(C(C)C)cc1)nc(=O)n2Cc1cccc(C)c1
[1]
  IC50: 1.8 nM
Rattus norvegicus [2]
  Activity: Active

## C#CCOc1ccc2c(c1)c(-c1ccc(C(C)C)cc1)nc(=O)n2Cc1cccc(NC(=O)CN2CCN(CCCN(C)C)CC2)c1
[1]
  IC50: 8.1 nM
Rattus norvegicus [2]
  Activity: Active
[3]
  solubility: > 200 µg/mL
[4]
  bioavailability: 8%
[5]
  solubility: 100 µg/mL (≈ 158 µM)

## C#CCOc1ccc2c(c1)c(-c1ccc(C(C)C)cc1)nc(=O)n2Cc1cccc(NC(=O)CN2CCN(C)CC2)c1
[1]
  IC50: 2.4 nM
Rattus norvegicus [2]
  Activity: Active
[3]
  solubility: > 200 µg/mL
[4]
  bioavailability: 1%
[5]
  solubility: 20 µg/mL (≈ 35.5 µM)

## C#CCOc1ccc2c(c1)c(-c1ccc(C(C)C)cc1)nc(=O)n2Cc1ccc(C(C)C)cc1
[1]
  IC50: 27 nM
Rattus norvegicus [2]
  Activity: Active

## COc1ccc2c(c1)c(-c1ccccc1)nc(=O)n2C(C)C
[1]
  IC50: > 30000 nM
Rattus norvegicus [2]
  Activity: Active

## C#CCOc1ccc2c(c1)c(-c1ccc(C(C)C)cc1)nc(=O)n2Cc1ccc(C)cc1
[1]
  IC50: 1.6 nM
Rattus norvegicus [2]
  Activity: Active

## COC(=O)c1ccc(-c2nc(=O)n(C(C)C)c3ccc(OC)cc23)cc1
[1]
  IC50: > 30000 nM
Rattus norvegicus [2]
  Activity: Active

## COc1ccc2c(c1)c(-c1ccc(-c3ccccc3)cc1)nc(=O)n2C(C)C
[1]
  IC50: 5500 nM
Rattus norvegicus [2]
  Activity: Active

## CCCOc1ccc2c(c1)c(-c1ccc(C(C)C)cc1)nc(=O)n2C(C)C
[1]
  IC50: 1100 nM
Rattus norvegicus [2]
  Activity: Active

## CCCc1c(O)ccc2c1c(-c1ccc(C(C)C)cc1)nc(=O)n2Cc1ccccc1
[1]
  IC50: 6.6 nM
Rattus norvegicus [2]
  Activity: Active

## COc1ccc2c(c1)c(-c1ccc(C(C)C)cc1)nc(=O)n2C(C)C
[1]
  IC50: 1400 nM
Rattus norvegicus [2]
  Activity: Active

## C#CCOc1ccc2c(c1)c(-c1ccc(C(C)C)cc1)nc(=O)n2Cc1cccc(NC(=O)CN2CCN(CCOC)CC2)c1
[1]
  IC50: 13 nM
Rattus norvegicus [2]
  Activity: Active
[3]
  solubility: > 200 µg/mL
[4]
  bioavailability: 1%
[5]
  solubility: 20 µg/mL (≈ 32.9 µM)

## COc1ccc2c(c1)c(-c1ccc(C3CC3)cc1)nc(=O)n2C(C)C
[1]
  IC50: 3300 nM
Rattus norvegicus [2]
  Activity: Active

## CCN(CC)c1ccc2c(c1)c(-c1ccc(C(C)C)cc1)nc(=O)n2C(C)C
[1]
  IC50: 520 nM
Rattus norvegicus [2]
  Activity: Active

## CC(C)Oc1ccc2c(c1)c(-c1ccc(C(C)C)cc1)nc(=O)n2C(C)C
[1]
  IC50: 2700 nM
Rattus norvegicus [2]
  Activity: Active

## C#CCOc1ccc2c(c1)c(-c1ccc(C(C)C)cc1)nc(=O)n2Cc1ccc(OC)cc1
[1]
  IC50: 4.2 nM
Rattus norvegicus [2]
  Activity: Active

## COc1ccc2c(c1)c(-c1ccc(C(=O)O)cc1)nc(=O)n2C(C)C
[1]
  IC50: > 30000 nM
Rattus norvegicus [2]
  Activity: Active

## C=CCc1c(O)ccc2c1c(-c1ccc(C(C)C)cc1)nc(=O)n2Cc1ccccc1
[1]
  IC50: 3.9 nM
Rattus norvegicus [2]
  Activity: Active

## C#CCN(CC#C)c1ccc2c(c1)c(-c1ccc(C(C)C)cc1)nc(=O)n2C(C)C
[1]
  IC50: 120 nM
Rattus norvegicus [2]
  Activity: Active

## C#CCOc1ccc2c(c1)c(-c1ccc(C(C)C)cc1)nc(=O)n2Cc1ccc(OCC)cc1
[1]
  IC50: 19 nM
Rattus norvegicus [2]
  Activity: Active

## C#CCOc1ccc2c(c1)c(-c1ccc(C(C)C)cc1)nc(=O)n2Cc1cccc(OCCO)c1
[1]
  IC50: 7.3 nM
Rattus norvegicus [2]
  Activity: Active

## C#CCOc1ccc2c(c1)c(-c1ccc(C(C)C)cc1)nc(=O)n2Cc1cccc(CC)c1
[1]
  IC50: 13 nM
Rattus norvegicus [2]
  Activity: Active

## CCc1ccc(-c2nc(=O)n(C(C)C)c3ccc(OC)cc23)cc1
[1]
  IC50: 2100 nM
Rattus norvegicus [2]
  Activity: Active

## CC(C)c1ccc(-c2nc(=O)n(Cc3ccccc3)c3ccc(O)c(CC4CC4)c23)cc1
[1]
  IC50: 2.5 nM
Rattus norvegicus [2]
  Activity: Active

## CC(C)c1ccc(-c2nc(=O)n(C(C)C)c3ccc(NCc4ccccc4)cc23)cc1
[1]
  IC50: 10000 nM
Rattus norvegicus [2]
  Activity: Active

## C#CCOc1ccc2c(c1)c(-c1ccc(C(C)C)cc1)nc(=O)n2C(C)C
[1]
  IC50: 9 nM
Rattus norvegicus [6]
  Activity: 150 pgequiv/ml
Canis familiaris [7]
  Activity: 300 pgequiv/ml
Rattus norvegicus [2]
  Activity: Active
[3]
  solubility: 20 µg/mL (≈ 55.5 µM)
[4]
  bioavailability: 20%
[5]
  solubility: 20 µg/mL (≈ 55.5 µM)
Rattus norvegicus [8]
  Activity: 280 pgequiv/ml
Canis familiaris [9]
  Activity: 50 pg·h/mL

## C#CCOc1ccc2c(c1)c(-c1ccc(C(C)C)cc1)nc(=O)n2Cc1cccc(OC)c1
[1]
  IC50: 2.7 nM
Rattus norvegicus [2]
  Activity: Active

## C=CCOc1ccc2c(c1)c(-c1ccc(C(C)C)cc1)nc(=O)n2C(C)C
[1]
  IC50: 180 nM
Rattus norvegicus [2]
  Activity: Active

## C#CCNc1ccc2c(c1)c(-c1ccc(C(C)C)cc1)nc(=O)n2C(C)C
[1]
  IC50: 30 nM
Rattus norvegicus [2]
  Activity: Active

## C#CCOc1ccc2c(c1)c(-c1ccc(C(C)C)cc1)nc(=O)n2Cc1ccccc1
[1]
  IC50: 4.4 nM
Rattus norvegicus [2]
  Activity: Active

## C#CCOc1ccc2c(c1)c(-c1ccc(C(C)C)cc1)nc(=S)n2Cc1cccc(OCCO)c1
[1]
  IC50: 0.4 nM
Rattus norvegicus [2]
  Activity: Active

## COc1ccc2c(c1)c(-c1ccc(C)cc1)nc(=O)n2C(C)C
[1]
  IC50: > 30000 nM
Rattus norvegicus [2]
  Activity: Active

## CCNc1ccc2c(c1)c(-c1ccc(C(C)C)cc1)nc(=O)n2C(C)C
[1]
  IC50: 460 nM
Rattus norvegicus [2]
  Activity: Active

## C#CCOc1ccc2c(c1)c(-c1ccc(C(C)C)cc1)nc(=O)n2Cc1ccc(CC)cc1
[1]
  IC50: 4.2 nM
Rattus norvegicus [2]
  Activity: Active

## C=CCN(C)c1ccc2c(c1)c(-c1ccc(C(C)C)cc1)nc(=O)n2C(C)C
[1]
  IC50: 230 nM
Rattus norvegicus [2]
  Activity: Active

## C#CCOc1ccc2c(c1)c(-c1ccc(C(C)C)cc1)nc(=O)n2Cc1cccc(OCC(=O)O)c1
[1]
  IC50: 3.4 nM
Rattus norvegicus [2]
  Activity: Active

## COc1ccc2c(c1)c(-c1ccc(OC(C)C)cc1)nc(=O)n2C(C)C
[1]
  IC50: > 30000 nM
Rattus norvegicus [2]
  Activity: Active

## C#CCOc1ccc2c(c1)c(-c1ccc(C(C)C)cc1)nc(=O)n2Cc1ccc(OCC(=O)O)cc1
[1]
  IC50: 12.6 nM
Rattus norvegicus [2]
  Activity: Active

## CCCN(CCC)c1ccc2c(c1)c(-c1ccc(C(C)C)cc1)nc(=O)n2C(C)C
[1]
  IC50: 2900 nM
Rattus norvegicus [2]
  Activity: Active

## C#CCOc1ccc2c(c1)c(-c1ccc(C(C)C)cc1)nc(=O)n2Cc1ccc(OC)c(OCC)c1 [ATF-936]
[1]
  IC50: 1.4 nM
Rattus norvegicus [2]
  Activity: Active

## CC(C)c1ccc(-c2nc(=O)n(C(C)C)c3ccc(O)cc23)cc1
[1]
  IC50: 15900 nM
Rattus norvegicus [2]
  Activity: Active
